Test results published in article PMC12024213, “Mechanism Insight of Cell Death Signaling by Thymol Derivatives on Trypanosomatidae Protozoan Parasites” (Antibiotics, 2025).
Read-outs that look alike come from different tables or passages of the source.

Columns and labels:
[1] = alamarBlue assay on L. amazonensis promastigotes; type: cell-based, Leishmania amazonensis; conditions: mouse; CC50 J774.A1 / IC50 L. amazonensis promastigotes; read-out: Selectivity Leishmania SI (CC50/IC50)
Procedure: (§1) The assay was conducted using the alamarBlue® method as previously described. Briefly, promastigotes of L. amazonensis were grown at 26 °C in Schneider’s medium (US Biological, Life sciences) and supplemented with 10% heat-inactivated fetal bovine serum and 0.04% of sodium bicarbonate. In a 96-well microtiter plates (Corning™, Corning, NY, USA) a serial dilutions of thymol derivatives were first prepared, and later, 10^6 parasites/mL were added into each well. Subsequently, 10% of alamarBlue® was added to the entire plate. The plates were incubated for 72 h at 26 °C.
(§2) Cytotoxicity effect of the tested derivatives was conducted using macrophages of the murine cell line J774.A1 (American Type Culture Collection #TIB-67, city, country), as previously described. The cells were maintained in DMEM at 37 °C in a 5% CO2 humidified incubator. All the plates containing alamarBlue® were analyzed using a plate reader EnSpire Multimode Plate Reader® at excitation and emission wavelengths of 570 and 585 nm, respectively (PerkinElmer, ThermoFisher Scientific, Madrid, Spain). The IC50 (concentrations able to inhibit 50% of parasites), IC90 (concentrations able to inhibit 90% of parasites), and CC50 (concentration able to inhibit 50% of murine macrophages) values were determined for each compound by nonlinear regression using GraphPad software.

[2] = system: L. amazonensis promastigotes; assay: alamarBlue assay on L. amazonensis promastigotes; type: cell-based, Leishmania amazonensis; conditions: Leishmania amazonensis
Procedure: as §1, §2

[3] = system: L. amazonensis; assay: Atomic force microscopy, L. amazonensis; type: cell-based, Leishmania amazonensis; conditions: IC90, 12 and 24 h
Procedure: (§3) […] After incubation, cells were washed twice with PBS, and 10 µL of a 10^5 cells/mL suspension was smeared onto glass slides. Prior to AFM analysis, samples were dried for 10 min. AFM topographic images were acquired in Peak Force mode using a multimode microscope equipped with a Nanoscope V control unit (Bruker). Scans were performed at rates of 0.5–1.2 Hz, employing FESP tips (50–100 kHz, 1–5 N/m) from Bruker. The damage caused by derivative 9 in both parasites was assessed by recording images at scales ranging from 100 µm × 100 µm to 0.6 µm × 0.6 µm, with a resolution of 512 points per line.

[4] = system: T. cruzi epimastigotes; assay: Mitochondrial membrane potential, JC-1, T. cruzi; type: cell-based, Trypanosoma cruzi; conditions: JC-1 red/green ratio, IC90, 24 h
Procedure: The measurement of mitochondrial membrane potential was carried out using the JC-1 assay. JC-1 is a mitochondria-specific stain whose fluorescence emission depends on the mitochondrial membrane potential. In healthy mitochondria, JC-1 aggregates and emits red fluorescence, whereas in unhealthy mitochondria, it remains in monomeric form and emits green fluorescence. […] The assay was performed according to the manufacturer’s instructions, as detailed in a previous study.

[5] = system: T. cruzi; assay: Atomic force microscopy, T. cruzi; type: cell-based, Trypanosoma cruzi; conditions: IC90, 12 and 24 h
Procedure: as §3

[6] = system: T. cruzi; assay: Intracellular ROS, CellROX Deep Red, T. cruzi; type: cell-based, Trypanosoma cruzi; conditions: 24 h incubation
Procedure: (§4) The measure of reactive oxygen species (ROS) was measured after treatment of 24 h using CellROX® Deep Red fluorescent probe (Invitrogen, Madrid, Spain). The mitochondria constitute an essential organelle to neutralize the reactive oxygen species; the malfunction of this organelle would generate an imbalance between the antioxidants and the reactive oxygen.

[7] = system: L. amazonensis; assay: Intracellular ROS, CellROX Deep Red, L. amazonensis; type: cell-based, Leishmania amazonensis; conditions: 24 h incubation
Procedure: as §4

[8] = system: T. cruzi
Procedure: (§5) The effect of derivatives 9 and 10 to modulate cell features was studied in the tested protozoa parasites, using various specific commercial kits. Parasite cells were incubated with the derivative at the previously calculated IC90 for 24 h. Subsequently, cells were washed and submitted to different treatments as mentioned by the manufacturer’s instructions. In all the assays, a plate reader EnSpire Multimode Plate Reader® and/or an image base system fluorescence microscope EVOS M5000 were used for the fluorescence intensity quantification. For each protocol, images of representative population cells were obtained using an inverted confocal microscope Leica DMI 4000 B with LAS X software, and Leica HC PL APO 63×/1.40 OIL CS2 Objective (Barcelona, Spain). The SYTOX™ Green (Life Technologies, Madrid, Spain), a cell impermeable DNA binding stain, was used to evaluate the membrane permeability and integrity. The assay was conducted as detailed in the manufacture instructions, and as previously described.

[9] = system: L. amazonensis
Procedure: as §5

[10] = 72 h, promastigotes, alamarBlue, 72 h at 26 °C, mean ± SD, triplicates, read-out: L. amazonensis Promastigote IC50

Row | Compound | selectivity ratio [1] | IC50 [2, 10] | IC50 ([2]; abstract, stage not stated, read-out: IC50 against L. amazonensis (abstract)) | morphological effects (AFM) [3] | decrease of mitochondrial membrane potential (ΔΨm) [4] | morphological effects (AFM) [5] | intracellular ROS (CellROX Deep Red) [6] | intracellular ROS (CellROX Deep Red) [7] | plasma membrane permeability (SYTOX Green) [8] | plasma membrane permeability (SYTOX Green) [9]
1 | COc1ccc(C(=O)Oc2cc(C)ccc2C(C)C)cc1 [Derivative 9, thymyl anysoate] | > 10.3 | 29.1 ± 3.8 µM | 22.9 µM | induced the formation of giant vacuoles in the cytoplasm | 70% | induced the formation of giant vacuoles in the cytoplasm | induced oxidative stress | induced oxidative stress |  | 
2 | Cc1ccc(C(C)C)c(OC(=O)c2ccccn2)c1 [Derivative 10, thymyl picolinate] | 7.4 | 34.4 ± 2.3 µM |  |  |  |  |  |  | greater damage to membrane permeability | greater damage to membrane permeability
